Measurements reported in patent US10322131B2, “Hydroxyacid derivatives, a process for their preparation and pharmaceutical compositions containing them” (LES LABORATOIRES SERVIER, priority 2015, dated 2019).

Key:
Mcl-1 protein = Mcl-1 protein (Homo sapiens, UniProt Q07820); experiment: Inhibition of Mcl-1 by the fluorescence polarisation technique; assay type: binding; conditions: fluorescence polarisation test; Fluorescein labelled ligand 1 nM, Mcl-1 protein 5 nM, ~2 hours at r.t.; read-out: IC50 (M) Mcl-1 FP
Protocol: The relative binding potency of each compound was determined via Fluorescence Polarisation (FP). The method utilised a Fluorescein labelled ligand (Fluorescein-βAla-Ahx-A-REIGAQLRRMADDLNAQY-OH; mw 2,765) which binds to the Mcl-1 protein (such that Mcl-1 corresponds to the UniProtKB® primary accession number: Q07820) leading to an increased anisotropy measured in milli-polarisation (mP) units using a reader. The addition of a compound which binds competitively to the same site as the ligand will result in a greater proportion of unbound ligand in the system indicated by a decrease in mP units.
An 11 point serial dilution of each compound was prepared in DMSO and 2 μl transferred into flat bottomed, low binding, 384-well plate (final DMSO concentration 5%). 38 μl of buffer (10 mM 4-(2-hydroxyethyl)-1-piperazineethanesulfonic acid [HEPES], 150 mM NaCl, 0.05% Tween 20, pH 7.4), containing the Fluorescein labelled ligand (final concentration 1 nM) and Mcl-1 protein (final concentration 5 nM) was then added.
Assay plates were incubated ˜2 hours at r.t. before FP was measured on a Biomek Synergy2 reader (Ex. 528 nm, Em. 640 nm, Cut off 510 nm) and mP units calculated. The binding of increasing doses of test compound was expressed as a percentage reduction in mP compared to a window established between ‘5% DMSO only’ and ‘100% inhibition’ controls. 11-point dose response curves were plotted with XL-Fit software using a 4-Parameter Logistic Model (Sigmoidal Dose-Response Model) and the inhibitory concentrations that gave a 50% reduction in mP (IC50) were determined.

H929 cells = experiment: In vitro cytotoxicity (MTT) on H929 multiple myeloma tumour line; assay type: cell-based; conditions: Homo sapiens, NCI-H929, exposed 48 hours, Microculture Tetrazolium Assay
Protocol: The cytotoxicity studies were carried out on the H929 multiple myeloma tumour line.
The cells are distributed onto microplates and exposed to the test compounds for 48 hours.
The cell viability is then quantified by a colorimetric assay, the Microculture Tetrazolium Assay (Cancer Res., 1987, 47, 939-942).

Mcl-1 protein, sequence (Q07820 whole entry): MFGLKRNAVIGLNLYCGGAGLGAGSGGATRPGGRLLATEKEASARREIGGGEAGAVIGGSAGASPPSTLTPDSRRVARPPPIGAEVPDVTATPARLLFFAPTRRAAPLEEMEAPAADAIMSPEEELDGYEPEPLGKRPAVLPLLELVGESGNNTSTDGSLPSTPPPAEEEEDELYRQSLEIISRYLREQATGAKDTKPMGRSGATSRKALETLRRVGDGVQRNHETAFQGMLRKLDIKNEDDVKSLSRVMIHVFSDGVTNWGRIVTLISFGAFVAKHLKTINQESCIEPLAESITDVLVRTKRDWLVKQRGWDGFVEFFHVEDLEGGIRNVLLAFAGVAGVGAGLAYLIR

Compound | IC50 (Mcl-1 protein) [M] | IC50 (H929 cells) [nM]
COC1OC(COc2ccc(-c3nccc(COc4ccccc4CC(Oc4ncnc5sc(-c6ccc(F)cc6)c(-c6ccc(OCCN7CCN(C)CC7)c(Cl)c6C)c45)C(=O)O)n3)cc2)C(OC)C(OC)C1OC [Example 19, methyl 6-O-{4-[4-({2-[(2R)-2-carboxy-2-{[(5Sa)-5-{3-chloro-2-methyl-4-[2-(4-methylpiperazin-1-yl)ethoxy]phenyl}-6-(4-fluorophenyl)thieno[2,3-d]pyrimidin-4-yl]oxy}ethyl]phenoxy}methyl)pyrimidin-2-yl]phenyl}-2,3,4-tri-O-methyl-α-D-mannopyranoside] | 4.95e-09 | 2.47
COCC(COC)Oc1ccc(-c2nccc(COc3ccccc3CC(Oc3ncnc4sc(-c5ccc(F)cc5)c(-c5ccc(OCCN6CCN(C)CC6)c(Cl)c5C)c34)C(=O)O)n2)cc1 [Example 14, (2R)-2-{[(5Sa)-5-{3-chloro-2-methyl-4-[2-(4-methylpiperazin-1-yl)ethoxy]phenyl}-6-(4-fluorophenyl)thieno[2,3-d]pyrimidin-4-yl]oxy}-3-{(2-[(2-{4-[(1,3-dimethoxypropan-2-yl)oxy]phenyl}pyrimidin-4-yl)methoxy]phenyl}propanoic acid] | 6.15e-09 | 3.37
Cc1c(-c2c(-c3ccc(F)cc3)sc3ncnc(OC(Cc4ccccc4OCc4ccnc(-c5cccc(OCC6COC(C)(C)O6)c5)n4)C(=O)O)c23)ccc(OCCN2CCN(C)CC2)c1Cl [Example 35, (2R) -2-{[(5Sa)-5-{3-chloro-2-methyl-4-[2-(4-methylpiperazin-1-yl)ethoxy]phenyl}-6-(4-fluorophenyl)thieno[2,3-d]pyrimidin-4-yl]oxy}-3-{2-[(2-{3-[(2,2-dimethyl-1,3-dioxolan-4-yl)methoxy]phenyl}pyrimidin-4-yl)methoxy]phenyl}propanoic acid] | 5.15e-09 | 4.76
Cc1c(-c2c(-c3ccc(F)cc3)sc3ncnc(OC(Cc4ccccc4OCc4ccnc(-c5cccc(COC(=O)N6CCC(N7CCCCC7)CC6)c5)n4)C(=O)O)c23)ccc(OCCN2CCN(C)CC2)c1Cl [Example 37, (2R)-3-(2-{[2-(3-{[(1,4′-bipiperidin-1′-ylcarbonyl)oxy]methyl}phenyl)pyrimidin-4-yl]methoxy}phenyl)-2-{[(5Sa)-5-{3-chloro-2-methyl-4-[2-(4-methylpiperazin-1-yl)ethoxy]phenyl}-6-(4-fluorophenyl)thieno[2,3-d]pyrimidin-4-yl]oxy}propanoic acid] | 6.3e-09 | 20.5
Cc1c(-c2c(-c3ccc(F)cc3)sc3ncnc(OC(Cc4ccccc4OCc4ccnc(-c5ccc(OCCOCCO)cc5)n4)C(=O)O)c23)ccc(OCCN2CCN(C)CC2)c1Cl [Example 32, (2R)-2-{[(5Sa)-5-{3-chloro-2-methyl-4-[2-(4-methylpiperazin-1-yl)ethoxy]phenyl}-6-(4-fluorophenl)thieno[2,3d]-pyrimidin-4-yl]oxy}-3-{2-[(2-{4-[2-(2-hydroxyethoxy)ethoxy]phenyl}pyrimidin-4-yl)methoxy]phenyl}propanoic acid] | 1.53e-08 | 1.68
COCCOCCOCCOc1ccc(-c2nccc(COc3ccccc3CC(Oc3ncnc4sc(-c5ccc(F)cc5)c(-c5ccc(OCCN6CCN(C)CC6)c(Cl)c5C)c34)C(=O)O)n2)cc1 [Example 33, (2R)-2-{[(5Sa)-5-{3-chloro-2-methyl-4-[2-(4-methylpiperazin-1-yl)ethoxy]phenyl}-6-(4-fluorophenyl)thieno[2,3-d]pyrimidin-4-yl]oxy}-3-(2-{[2-(4-{2-[2-(2-methoxyethoxy)ethoxy]ethoxy}phenyl)pyrimidin-4-yl]methoxy}phenyl)propanoic acid] | 2.24e-08 | 1.18
Cc1c(-c2c(-c3ccc(F)cc3)sc3ncnc(OC(Cc4ccccc4OCc4ccnc(-c5ccc(O)cc5)n4)C(=O)O)c23)ccc(OCCN2CCN(C)CC2)c1Cl [Example 2, (2R)-2-{[(5Sa)-5-{3-chloro-2-methyl-4-[2-(4-methylpiperazin-1-yl)ethoxy]phenyl}-6-(4-fluorophenyl)thieno[2,3-d]pyrimidin-4-yl]oxy}-3-(2-{[2-(4-hydroxyphenyl)pyrimidin-4-yl]methoxy}phenyl)propanoic acid] | 1.32e-08 | 15.9

More lines, in order of falling IC50 (Mcl-1 protein), values ahead:

IC50 (Mcl-1 protein) [M] | Compound | IC50 (H929 cells) [nM]
4.9e-09 | Cc1c(-c2c(-c3ccc(F)cc3)sc3ncnc(OC(Cc4ccccc4OCc4ccnc(-c5ccc(CO)cc5)n4)C(=O)O)c23)ccc(OCCN2CCN(C)CC2)c1Cl [Example 4, (2R)-2-{[(5Sa)-5-{3-chloro-2-methyl-4-[2-(4-methylpiperazin-1-yl)ethoxy]phenyl}-6-(4-fluorophenyl)thieno[2,3-d]pyrimidin-4-yl]oxy}-3-[2-({2-[4-hydroxymethyl)phenyl]pyrimidin-4-yl}methoxy)phenyl]propanoic acid] | 3.64
4.8e-09 | COC1OC(COc2cccc(-c3nccc(COc4ccccc4CC(Oc4ncnc5sc(-c6ccc(F)cc6)c(-c6ccc(OCCN7CCN(C)CC7)c(Cl)c6C)c45)C(=O)O)n3)c2)C(OC)C(OC)C1OC [Example 17, methyl 6-O-{3-[4-({2-[(2R)-2-carboxy-2-{[(5Sa)-5-{3-chloro-2-methyl-4-[2-(4methylpiperazin-1-yl)ethoxy]phenyl}-6-(4-fluorophenyl)thieno[2,3-d]pyrimidin-4-yl]oxy}ethyl]phenoxy}methyl)pyrimidin-2-yl]phenyl}-2,3,4-tri-O-methyl-α-D-mannopyranoside] | 3.03
4.5e-09 | Cc1c(-c2c(-c3ccc(F)cc3)sc3ncnc(OC(Cc4ccccc4OCc4ccnc(-c5cccc(OCCO)c5)n4)C(=O)O)c23)ccc(OCCN2CCN(C)CC2)c1Cl [Example 30, (2R)-2-{[(5Sa)-5-{3-chloro-2-methyl-4-[2-(4-methylpiperazin-1-yl)ethoxy]phenyl}-6-(4-fluorophenyl)thieno[2,3-d]pyrimidin-4-yl]oxy}-3-[2-({2-[3-(2-hydroxyethoxy)phenyl]pyrimidin-4-yl-}methoxy)phenyl]propanoic acid] | 3.6
4.35e-09 | Cc1c(-c2c(-c3ccc(F)cc3)sc3ncnc(OC(Cc4ccccc4OCc4ccnc(-c5ccc(OCC6OC(O)C(O)C(O)C6O)cc5)n4)C(=O)O)c23)ccc(OCCN2CCN(C)CC2)c1Cl [Example 20, 6-O-{4-[4-({2-[(2R)-2-carboxy-2-{[(5Sa)-5-{3-chloro-2-methyl-4-[2-(4-methylpiperazin-1-yl)ethoxy]phenyl}-6-(4-fluorophenyl)thieno[2,3-d]pyrimidin-4-yl]oxy}ethyl]phenoxy}methyl)pyrimidin-2-yl]phenyl}-D-mannopyranose] | 56.8
4.05e-09 | Cc1c(-c2c(-c3ccc(F)cc3)sc3ncnc(OC(Cc4ccccc4OCc4ccnc(-c5ccccc5COCC5COC(C)(C)O5)n4)C(=O)O)c23)ccc(OCCN2CCN(C)CC2)c1Cl [Example 11, (2R)-2-{[(5Sa)-5-{3-chloro-2-methyl-4-[2-(4-methylpiperazin-1-yl)ethoxy]phenyl}-6-(4-fluorophenyl)thieno[2,3-d]pyrimidin-4-yl]oxy}-3-(2-{[2-(2-{[(2,2-dimethyl-1,3-dioxolan-4-yl)methoxy]methyl}phenyl)pyrimidin-4-yl]methoxy}phenyl)propanoic acid] | 1.99
4.05e-09 | Cc1c(-c2c(-c3ccc(F)cc3)sc3ncnc(OC(Cc4ccccc4OCc4ccnc(-c5cccc(CO)c5)n4)C(=O)O)c23)ccc(OCCN2CCN(C)CC2)c1Cl [Example 3, (2R)-2-{[(5Sa)-5-{3-chloro-2-methyl-4-[2-(4-methylpiperazin-1-yl)ethoxy]phenyl}-6-(4-fluorophenyl)thieno[2,3-d]pyrimidin-4-yl]oxy}-3-[2-({2-[3-(hydroxymethyl)phenyl]pyrimidin-4-yl}methoxy)phenyl]propanoic acid] | 4.08
3.85e-09 | COCCOCCOc1ccc(-c2nccc(COc3ccccc3CC(Oc3ncnc4sc(-c5ccc(F)cc5)c(-c5ccc(OCCN6CCN(C)CC6)c(Cl)c5C)c34)C(=O)O)n2)cc1 [Example 31, (2R)-2-{[(5Sa)-5-{3-chloro-2-methyl-4-[2-(4-methylpiperazin-1-yl)ethoxy]phenyl}-6-(4-fluorophenyl)thieno[2,3-d]pyrimidin-4-yl]oxy}-3-{2-[(2-{4-[2-(2-methoxyethoxy)ethoxy]phenyl}pyrimidin-4-yl)methoxy]phenyl}propanoic acid] | 1.68
3.45e-09 | Cc1c(-c2c(-c3ccc(F)cc3)sc3ncnc(OC(Cc4ccccc4OCc4ccnc(-c5ccccc5OCC(O)CO)n4)C(=O)O)c23)ccc(OCCN2CCN(C)CC2)c1Cl [Example 25, (2R)-2-{[(5Sa)-5-{3-chloro-2-methyl-4-[2-(4-methylpiperazin-1-yl)ethoxy]phenyl}-6-(4-fluorophenyl)thieno[2,3-d]pyrimidin-4-yl]oxy}-3-[2-({2-[2-(2,3-dihydroxypropoxy)phenyl]pyrimidin-4-}methoxy)phenyl]propanoic acid] | 10
